According to US20170305922A1, “CARM1 INHIBITORS AND USES THEREOF” (Epizyme, Inc., priority 2014, published 2017):
pIC50: −log10 of the molar value.

Legend:
[1] = tested on: asymmetric di-methyl PABP1 in RKO cells; experiment: RKO methylation assay: In Cell Western (ICW) for asymmetric di-methyl PABP1 (PABP1me2a); conditions: Homo sapiens, RKO, 48 h, Cellular-based (PABP1me2a) ICW (In Cell Western) assay
Method in brief: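 In-cell western on compound-exposed RKO cells (48 hours): asymmetric di-methyl PABP1 detected by antibody at 800 nm, DNA content by DRAQ5 at 700 nm. Percent inhibition from signal ratios against DMSO (minimum) and 20 μM reference compound (maximum) wells; IC50 curves fitted from triplicates.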

Human CARM1 (PRMT4) = target: T1, Human CARM1 (PRMT4) (Homo sapiens, UniProt Q86X55); experiment: CARM1 enzyme assay on peptide substrates (3H-SAM Flashplate); conditions: Biochemical assay; CARM1 0.25 nM, 3H-SAM 30 nM, peptide 250 nM; read-out: Biochem IC50
T1 construct: Flag-CARM1-His was eluted with 200 ug/ml FLAG peptide in buffer A; made in house; host or cells: HEK 293F cells infected with recombinant baculovirus (pFastBacMam)
T1 sequence (Q86X55 1-585 isoform Q86X55-1): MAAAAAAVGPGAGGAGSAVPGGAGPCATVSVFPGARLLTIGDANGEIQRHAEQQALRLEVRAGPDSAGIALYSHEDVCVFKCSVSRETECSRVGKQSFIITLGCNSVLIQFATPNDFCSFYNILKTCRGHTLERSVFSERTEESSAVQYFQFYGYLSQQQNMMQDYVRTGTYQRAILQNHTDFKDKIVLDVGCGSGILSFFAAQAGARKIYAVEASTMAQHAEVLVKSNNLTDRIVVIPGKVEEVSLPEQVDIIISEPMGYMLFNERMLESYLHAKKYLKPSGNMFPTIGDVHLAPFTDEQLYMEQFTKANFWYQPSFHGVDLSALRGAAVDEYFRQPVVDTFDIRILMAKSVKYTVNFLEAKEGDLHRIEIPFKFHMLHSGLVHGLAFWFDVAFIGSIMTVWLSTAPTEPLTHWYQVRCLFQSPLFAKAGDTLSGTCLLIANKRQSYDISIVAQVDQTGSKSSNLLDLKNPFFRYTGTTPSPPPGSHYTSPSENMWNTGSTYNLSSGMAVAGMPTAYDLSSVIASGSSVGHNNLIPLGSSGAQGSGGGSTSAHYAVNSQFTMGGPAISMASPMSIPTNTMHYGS

Row | Compound | pIC50 [1] | pIC50 (Human CARM1 (PRMT4))
1 | CNC[C@@H](O)COc1ccc(Cl)c(-c2nc(-c3c(C)noc3C)c(C)c(N3CC4(CC(N(C)CC(F)(F)F)C4)C3)n2)c1 [Example 271] | 7.05 | 8.13
2 | CNC[C@@H](O)COc1ccc(Cl)c(-c2nc(-c3c(Br)cnn3C)c(C)c(N3Cc4ccc(N5CCC5)nc4C3)n2)c1 [Example 243] | 7.43 | 9.10
3 | CNC[C@@H](O)COc1ccc(Cl)c(-c2nc(-c3c(C)noc3C)c(C)c(N3Cc4cnc(N5CCOCC5)nc4C3)n2)c1 [Example 144] | 7.66 | 8.48
4 | CNC[C@@H](O)COc1ccc(Cl)c(-c2nc(-c3c(C)noc3C)c(C)c(N3CC4(CCN(C(C)=O)C4)C3)n2)c1 [Example 63] | 5.69 | 7.96
5 | CNC[C@@H](O)COc1ccc(Cl)c(-c2nc(-c3c(C)noc3C)c(C)c(N3CC4(C3)CN(C3CC3)C4)n2)c1 [Example 96] | 7.27 | 8.68
6 | CCc1onc(C)c1-c1nc(-c2cc(OC[C@H](O)CNC)ccc2Cl)nc(N2CC3(CC(OC)C3)C2)c1C [Example 171] | 6.76 | 8.24
7 | CNC[C@@H](O)COc1ccc(Cl)c(-c2nc(-c3c(C)noc3C)c(C)c(N3Cc4cnc(OC)nc4C3)n2)c1 [Example 70] | 7.72 | 8.49
8 | CNC[C@@H](O)COc1ccc(Cl)c(-c2nc(-c3c(C)noc3C)c(C)c(N3CC4(C3)CC(O)(C(F)(F)F)C4)n2)c1 [Example 213] | 6.48 | 8.27
9 | CNC[C@@H](O)COc1ccc(Cl)c(-c2nc(-c3c(I)cnn3C)c(C)c(N3Cc4cccnc4C3)n2)c1 [Example 244] | 6.85 | 8.92
10 | CCC1(C(=O)N2CCC2)CN(c2nc(-c3cc(OC[C@H](O)CNC)ccc3Cl)nc(-c3c(C)noc3C)c2C)C1 [Example 189] | 6.61 | 8.24
11 | CNC[C@@H](O)COc1ccc(Cl)c(-c2nc(-c3c(C)c(Cl)nn3C)c(C)c(N3Cc4cnc(N5CCC5)nc4C3)n2)c1 [Example 153] | 7.82 | 8.72
12 | CNC[C@@H](O)COc1ccc(Cl)c(-c2nc(-c3c(Cl)cnn3C)c(C)c(N3CC4=C(CN(C(=O)OC)C4)C3)n2)c1 [Example 335] | 7.52 | 8.64
13 | CNC[C@@H](O)COc1ccc(Cl)c(-c2nc(-c3c(Cl)cnn3C)c(C)c(N3Cc4cnn(C)c4C3)n2)c1 [Example 342] | 6.91 | 8.56
14 | CNC[C@@H](O)COc1ccc(Cl)c(-c2nc(-c3c(C)noc3C)c(C)c(N3Cc4cnc(OCC(F)F)nc4C3)n2)c1 [Example 127] | 7.49 | 8.11
15 | CNC[C@@H](O)COc1ccc(Cl)c(-c2nc(-c3c(C)noc3C)c(C)c(N3Cc4cn(C5COC5)nc4C3)n2)c1 [Example 126] | 6.80 | 8.21
16 | CNC[C@@H](O)COc1cccc(-c2nc(-c3c(C)cnn3C)c(C)c(N3CC4(CCN(C(=O)OC)CC4)C3)n2)c1 [Example 61] | 6.06 | 7.86
17 | CNC[C@@H](O)COc1ccc(Cl)c(-c2nc(-c3c(C)cnn3C)c(C)c(N3Cc4cncnc4C3)n2)c1 [Example 81] | 6.95 | 8.42
18 | CNC[C@@H](O)COc1ccc(Cl)c(-c2nc(-c3c(C)noc3C)c(C)c(N3CC4(CCN(CC(F)(F)F)C4)C3)n2)c1 [Example 45] | 7.40 | 7.92
19 | CNC[C@@H](O)COc1ccc(Cl)c(-c2nc(-c3c(C)noc3C)c(C)c(N3CC4(CCC(C#N)CC4)C3)n2)c1 [Example 92] | 7.19 | 8.28
20 | CNC[C@@H](O)COc1ccc(Cl)c(-c2nc(-c3c(C)c(Br)nn3C)c(C)c(N3CC4(CC(OCCC#N)C4)C3)n2)c1 [Example 297] | 7.40 | 8.55
21 | CNC[C@@H](O)COc1ccc(Cl)c(-c2nc(-c3c(C)noc3C)c(C)c(N3C[C@H]4CN(CC(F)F)C[C@@H]4C3)n2)c1 [Example 29] | 6.58 | 7.99
22 | CNC[C@@H](O)COc1ccc(Cl)c(-c2nc(-c3c(C)noc3C)c(C)c(N3Cc4cnc(N5CCOC5=O)nc4C3)n2)c1 [Example 181] | 6.34 | 8.74
23 | CNC[C@@H](O)COc1ccc(Cl)c(-c2nc(-c3c(C)noc3C)c(C)c(N3Cc4cnn(CCOC)c4C3)n2)c1 [Example 110] | 7.28 | 8.32
24 | CNC[C@@H](O)COc1ccc(Cl)c(-c2nc(-c3c(C)c(Cl)nn3C)c(C)c(N3Cc4cnc(OCCOC)nc4C3)n2)c1 [Example 178] | 7.62 | 8.85

Row | Compound | pIC50 [1] | pIC50 (Human CARM1 (PRMT4))
25 | CNC[C@@H](O)COc1ccc(Cl)c(-c2nc(-c3c(C)cnn3C)c(C)c(N3CC4(CCN(C(=O)OC)CC4)C3)n2)c1 [Example 80] | 6.74 | 8.06
26 | CCN(C)c1nccc2c1CN(c1nc(-c3cc(OC[C@H](O)CNC)ccc3Cl)nc(-c3c(C)noc3C)c1C)C2 [Example 214] | 7.34 | 8.96
27 | CNC[C@@H](O)COc1ccc(Cl)c(-c2nc(-c3c(Cl)cnn3C)c(C)c(N3Cc4cncnc4C3)n2)c1 [Example 344] | 6.15 | 7.89
28 | CNC[C@@H](O)COc1ccc(Cl)c(-c2nc(-c3c(C)noc3C)c(C)c(N3CC4(CCN(CC(F)F)C4)C3)n2)c1 [Example 32] | 7.28 | 8.15
29 | CNC[C@@H](O)COc1ccc(Cl)c(-c2nc(-c3c(C)noc3C)c(C)c(N3CC4(CN(CC(F)(F)F)C4)C3)n2)c1 [Example 99] | 7.41 | 7.96
30 | CNC[C@@H](O)COc1ccc(Cl)c(-c2nc(-c3c(C)c(Cl)nn3C)c(C)c(N3CC4(CC(OC(C)C)C4)C3)n2)c1 [Example 274] | 7.31 | 8.30
31 | CNC[C@@H](O)COc1ccc(Cl)c(-c2nc(-c3c(C)c(Br)nn3C)c(C)c(N3CC4(CC(OC)C4)C3)n2)c1 [Example 256] | 7.36 | 8.40
32 | CNC[C@@H](O)COc1ccc(Cl)c(-c2nc(-c3c(C)noc3C)c(C)c(N3CC4(CN(CC(F)F)C4)C3)n2)c1 [Example 62] | 6.28 | 7.19
33 | CNC[C@@H](O)COc1ccc(Cl)c(-c2nc(-c3c(C)noc3C)c(C)c(N3C[C@@H]4C[C@H]3CN4CC(F)(F)F)n2)c1 [Example 120] | 6.41 | 8.06
34 | CNC[C@@H](O)COc1ccc(Cl)c(-c2nc(-c3c(Cl)cnn3C)c(C)c(N3Cc4cnc(N5CC(OC)C5)nc4C3)n2)c1 [Example 299] | 7.75 | 8.53
35 | Cc1noc(C)c1-c1nc(-c2cc(OC[C@H](O)CN(C)C=O)ccc2Cl)nc(N2Cc3cccnc3C2)c1C [Example 308] | 5.74 | 6.92
36 | CNC[C@@H](O)COc1ccc(Cl)c(-c2nc(-c3c(C)noc3C)c(C)c(N3C[C@@H]4C[C@H]3CN4C(=O)OC)n2)c1 [Example 104] | 6.43 | 7.97
37 | CNC[C@@H](O)COc1ccc(Cl)c(-c2nc(-c3c(C)noc3C)c(C)c(N3CC4(CCC(OC(F)(F)F)CC4)C3)n2)c1 [Example 234] | 6.98 | 8.21
38 | CNC[C@@H](O)COc1ccc(Cl)c(-c2nc(-c3c(C)c(Cl)nn3C)c(C)c(N3CC4(CCN(C(=O)OC)CC4)C3)n2)c1 [Example 192] | 7.24 | 8.33
39 | CNC[C@@H](O)COc1ccc(Cl)c(-c2nc(-c3c(C)noc3C)c(C)c(N3CC4=C(C3)CN(c3nc(-c5cc(OC[C@H](O)CNC)ccc5Cl)nc(-c5c(C)noc5C)c3C)C4)n2)c1 [Example 198] | 6.77 | 9.40
40 | CNC[C@@H](O)COc1ccc(Cl)c(-c2nc(-c3c(C)noc3C)c(C)c(N3Cc4cnn(C5COC5)c4C3)n2)c1 [Example 125] | 6.82 | 8.19
41 | CNC[C@@H](O)COc1ccc(Cl)c(-c2nc(-c3c(C)noc3C)c(C)c(N3CC(C)(C#N)C3)n2)c1 [Example 240] | 6.40 | 8.39
42 | CNC[C@@H](O)COc1ccc(Cl)c(-c2nc(-c3c(Cl)cnn3C)c(C)c(N3CC4(CCN(C(=O)OC)CC4)C3)n2)c1 [Example 74] | 6.68 | 8.01
43 | CNC[C@@H](O)COc1ccc(Cl)c(-c2nc(-c3c(C)noc3C)c(C)c(N3Cc4cnc(N(C)C)cc4C3)n2)c1 [Example 183] | 7.51 | 8.74
44 | CNC[C@@H](O)COc1ccc(Cl)c(-c2nc(-c3c(C)noc3C)c(C)c(-n3cc4c(n3)CN(C(=O)OC)C4)n2)c1 [Example 139] | 6.88 | 8.28
45 | CNC[C@@H](O)COc1ccc(Cl)c(-c2nc(-c3c(C)noc3C)c(C)c(N3CC4(C3)CC(OC)(C(F)(F)F)C4)n2)c1 [Example 208] | 6.85 | 8.28
46 | CNC[C@@H](O)COc1ccc(Cl)c(-c2nc(-c3c(C)noc3C)c(C)c(N3CC4(CC(OCCC#N)C4)C3)n2)c1 [Example 287] | 7.16 | 8.35
47 | CNC[C@@H](O)COc1cccc(-c2nc(-c3c(C)cnn3C)c(C)c(N3Cc4cncnc4C3)n2)c1 [Example 60] | 6.41 | 8.41
